Data taken from patent US4546079A, “Streptomyces species and process for producing antibiotic” (Bayer Aktiengesellschaft, priority 1981, dated 1985).
*1 amine or outer side, *2 acyl side, *3 side chain or, on linkers, in order; H or OH if unused. Where a SMILES comes first, the peptide text is derived from it. [ ]: non-standard residue; d: D form. ξ: configuration not given here. X1 = Cn1c(=NC(N)=O)ccn(C2SC(C(O)C(N[*:1])C(=O)[*:2])C(O)C2O)c1=O; ξOrn(N(OH)Ac) = CC(=O)N(O)CCCC(N)C(=O)O; ξS = NC(CO)C(=O)O

What was measured:
E. coli 205 Kn = assay: animal test (mice), ED100; type: in vivo; settings: Escherichia coli, sc, i.p. infection, s.c. treatment, all animals survive, read-out: ED100 after intra-peritoneal infection and subcutaneous treatment
Procedure: (§1) | ED100 after intra-peritoneal | infection and subcutaneous The animals were infected with a quantity of bacteria, which quantity led to the death of the control animals during the course of 24 hours. The ED100 was the dose which allowed all infected and treated animals to survive.

E. coli Neumann = assay: animal test (mice), ED100; type: in vivo; settings: Escherichia coli, sc, i.p. infection, s.c. treatment, all animals survive, read-out: ED100 after intra-peritoneal infection and subcutaneous treatment
Procedure: as §1

Klebsiella pneumoniae 63 = assay: animal test (mice), ED100; type: in vivo; settings: sc, i.p. infection, s.c. treatment, all animals survive, read-out: ED100 after intra-peritoneal infection and subcutaneous treatment
Procedure: as §1

Staphylococcus aureus = assay: animal test (mice), ED100; type: in vivo; settings: sc, i.p. infection, s.c. treatment, all animals survive, read-out: ED100 after intra-peritoneal infection and subcutaneous treatment
Procedure: as §1

E. coli Newmann = assay: ED100 (complete cure) in the white mouse; type: in vivo; settings: Escherichia coli, sc, 0.5 h, once, 30 minutes after infection, subcutaneously
Procedure: An ED100 (complete cure) is found in vivo for the white mouse, at 3 mg of antibiotic/kg of body weight, in the case of infection with E. coli […]; therapy: application once, 30 minutes after infection, subcutaneously.

E. coli 14 = assay: agar dilution test (NCCLS), in vitro activity; type: cell-based
E. coli C 165 = assay: agar dilution test (NCCLS), in vitro activity; type: cell-based
[1] = pH 7
physchem = settings: organic solvent or mixture

- solubility in water [1]: unlimited solubility
- solubility (physchem; chloroform): < 100 µg/mL
- solubility (physchem; dimethylformamide): < 10000 µg/mL
- solubility (physchem; dimethylsulphoxide): < 10000 µg/mL
- solubility (physchem; ether): < 100 µg/mL
- solubility (physchem; ethyl acetate): < 100 µg/mL
- solubility (physchem; methanol): < 10000 µg/mL
- solubility (physchem; petroleum ether): < 100 µg/mL
Compound: CC(=O)N(O)CCCC(N)C(=O)NC(CCCN(O)C(C)=O)C(=O)NC(CCCN(O)C(C)=O)C(=O)NC(CO)C(=O)NC(C(=O)O)C(O)C1SC(n2ccc(=NC(N)=O)n(C)c2=O)C(O)C1O (stereo not drawn) [BAY i 3265 component B] (H-[ξOrn(N(OH)Ac)][ξOrn(N(OH)Ac)][ξOrn(N(OH)Ac)][ξS][X1]-OH)
- ED100 (E. coli 205 Kn): 0.1 mg/kg
- ED100 (E. coli Neumann): 0.5 mg/kg
- ED100 (Klebsiella pneumoniae 63): 0.2 mg/kg
- ED100 (Staphylococcus aureus): 0.6 mg/kg
- ED100 (E. coli Newmann): 3 mg/kg
- in vitro activity (E. coli 14): in vitro activity is found
- in vitro activity (E. coli C 165): in vitro activity is found
